Measured values from patent US20030166542A1, “Systemic immune response induced by mucosal administration of lipid-tailed polypeptides without adjuvant” (INSTITUT PASTEUR, priority 1999, published 2003).
*: point of attachment. Palmitoyl = CCCCCCCCCCCCCCCC(=O)*

How the values were obtained:
[1] = tested on: T lymphocytes from ganglia sub-mandibulaires; type: cell-based, BALB/c mice
[2] = tested on: P. falciparum sporozoites, liver schizonts, infected RBC; test: Immunofluorescent Ab assay (IFAT) of sera from immunized mice against native parasite; type: in vivo
Experimental: FIG. 2: Mucosal immunization elicits parasite-specific antibody responses. Sera were obtained from C3H/HeJ mice at 2weeks post-immunization by either nasal or sub-lingual route and assayed fro recognition of (a) P. falciparum sporozoites and (B) hepatic schizonts in an IFI assay as described in Material and Methods. The data are representative of three independent experiments.
The reactivity of the sera against native proteins from various stages of the parasite were analyzed by IFAT using either (i) P. faciparum NF54 strain sporozoites (a gift of W. Eling), or (ii) sections from liver biopsies containing day 5 P. falciparum liver schizonts, or (iii) day 6 ½ P. falciparum liver schizonts obtained from a Chimpanzee. IFAT-labeled anti-human IgG, -A, -M (Diagnostic Pasteur France) or anti-mouse (Cappel. Wester Chester. Pa.) diluted {fraction (1/ 200)} were employed as second Abs.

[3] = tested on: spleen and inguinal lymph node cells; test: Lymphocyte proliferative assay ((3H)TdR) on spleen and inguinal lymph node cells of immunized mice; type: cell-based
Experimental: FIG. 3: Systemic cellular immune responses are electited by presentation of lipid-tailed polypeptides to the nasal and sub-lingual mucosal surfaces. Groups of five C3H/HeJ mice were administrated with LSA3-NRII lipid-tailed (black bars) or non-lipdated polypeptide (hatched bars) either a) intranasally, b) sub-lingually, or c) subcutaneously. Two weeks after two administrations, cell suspensions from individual spleens were assayed for in vitro proliferation to the recall polypeptide. Results are expressed as Δ cpm. The background cpm, in unstimulated cells were 1548 fro intranasal, 2356 for sub-lingual and 1965 for subcutaneous routs, Bars represent the mean Δ cpm±SD in each group. The data were similar and are representative of three separate experiments.

C3H/HeJ mice = test: Isotype analysis of polypeptide-specific serum antibodies (ELISA); type: in vivo

Concanavaline A [CON A, reference compound]
immune response (CFSE shift of fluorescence) ([1]; positive control): maximum immune response

Nh2-K(NεPam)GRQYIKANSKFIGITERGRILKEPVHGV-COOH [H-K(PAM)TT-pol 476-484]
shift of fluorescence (CFSE) [1]: as intense as that provided by positive CON A control

Ac-LEESQVNDDIFNSLVKSVQQEQQHNVK(Pam)NH2 (Ac-LEESQVNDDIFNSLVKSVQQEQQHNVK(Palmitoyl)-NH2; SMILES CCCCCCCCCCCCCCCC(=O)NCCCC[C@H](NC(=O)[C@@H](NC(=O)[C@H](CC(N)=O)NC(=O)[C@H](Cc1c[nH]cn1)NC(=O)[C@H](CCC(N)=O)NC(=O)[C@H](CCC(N)=O)NC(=O)[C@H](CCC(=O)O)NC(=O)[C@H](CCC(N)=O)NC(=O)[C@H](CCC(N)=O)NC(=O)[C@@H](NC(=O)[C@H](CO)NC(=O)[C@H](CCCCN)NC(=O)[C@@H](NC(=O)[C@H](CC(C)C)NC(=O)[C@H](CO)NC(=O)[C@H](CC(N)=O)NC(=O)[C@H](Cc1ccccc1)NC(=O)[C@@H](NC(=O)[C@H](CC(=O)O)NC(=O)[C@H](CC(=O)O)NC(=O)[C@H](CC(N)=O)NC(=O)[C@@H](NC(=O)[C@H](CCC(N)=O)NC(=O)[C@H](CO)NC(=O)[C@H](CCC(=O)O)NC(=O)[C@H](CCC(=O)O)NC(=O)[C@H](CC(C)C)NC(C)=O)C(C)C)[C@@H](C)CC)C(C)C)C(C)C)C(C)C)C(N)=O) [LSA3-NRII lipid-tailed polypeptide, palmitoyl lipid-tailed polypeptide derived from P. falciparum LSA-3]
reactivity of induced Abs with infected RBC's by IFAT ([2]; different steps of intra-erythrocytic maturation): did not react | reactivity of induced Abs with intact parasite by IFAT ([2]; sporozoite and liver stages, sera of mucosally immunized BALB/c and C3H/HeJ): react with the intact parasite | proliferative responses against irrelevant polypeptide (LSA1-J) ([3]; Ag specificity): lack of responses | maximal delta cpm, inguinal lymph nodes ([3]; S.L.): 16189 cpm | proliferative responses in spleen cells to recall polypeptide ([3]; S.L. or I.N. application, no mucosal adjuvant, C3H/HeJ): strong proliferative responses | phenotype of lymphoproliferative responses (antibody blocking) ([3]; after mucosal administration, anti-CD4 / anti-CD8 antibodies): abrogated by antibodies against CD4 but not by anti- CD8 antibodies | proliferative responses, mucosally versus subcutaneously immunized animals ([3]; same dose, P<0.05): at higher levels compared to subcutaneously immunized animals | isotype profile of serum antibody response (C3H/HeJ mice; mucosal administration (I.N., S.L.)): preferential IgG2a serum antibody response | isotype profile of serum antibody response (C3H/HeJ mice; subcutaneous route): dominant IgG1 isotype response
